# Data taken from patent US20250140406A1, “CLASSIFYING TUMORS AND PREDICTING RESPONSIVENESS” (Oncocyte Corporation, priority 2022, published 2025).
# Where two headings read alike, the source gives them in different places.
# What was measured:
# [1] = test system: cancer cell lines, DetermaIO classes; assay: Association of PRISM compound sensitivity with DetermaIO (DTIO) cell line classes; format: cell-based
# [2] = test system: cancer cell lines classified IM, MSL, M; assay: PRISM screen compound sensitivity correlated with IM, MSL and M subtype of cell lines (101 gene signature); format: cell-based
# [3] = test system: cancer cell lines; assay: Correlation of gene expression with PRISM compound sensitivity across cell lines (gene:compound correlate pairs); format: cell-based; parameters: key: Pearson correlation of gene expression with compound sensitivity
# Description: This list of genes (based upon gene expression and gene dependency) was analyzed by Pearson correlation with the compound sensitivity data across the training cell lines. Correlation values, p values, q values and local false discovery rates were calculated. This analysis was repeated using the same set of compounds and genes on the test set of cell lines.
# A negative correlation means that the importance of the expression of that gene to cell health was linked to increased compound sensitivity. • compound gene dep train pvalue: Measure of significance for this association. • compound gene dep test corr: Correlation of gene dependency with compound sensitivity in the test data set. • TNBCType train: Classification of association of the compound sensitivity with the IM, MSL and M cell line classes in the training data set. • DTIO Corr train: Association of the compound sensitivity with the DetermaIO cell line classes in the training data set. • TNBCType test: Classification of the association of the compound sensitivity with the IM, MSL and M cell line classes in the test data set. • DTIO Corr test: Association of the compound sensitivity with the DetermaIO cell line classes in the test data set.
# [4] = test system: Representative Cell Lines of TNBC tumor subtypes; conditions: TNBC subtypes from Lehmann et al.; cited from earlier work
# [5] = correlation of PRISM compound sensitivity with DTIO, test cell set
# [6] = correlation of PRISM compound sensitivity with DTIO, training cell set
# [7] = correlation of compound sensitivity with DetermaIO (DTIO), test set
# [8] = correlation of compound sensitivity with DetermaIO (DTIO), training set
# [9] = correlation of PRISM compound sensitivity with IM subtype correlation, test cell set
# [10] = correlation of PRISM compound sensitivity with M subtype correlation, test cell set
# [11] = correlation of PRISM compound sensitivity with MSL subtype correlation, test cell set
# [12] = correlation of PRISM compound sensitivity with IM subtype correlation, test cell set (188 cell lines)
# [13] = correlation of PRISM compound sensitivity with M subtype correlation, test cell set (188 cell lines)
# [14] = correlation of PRISM compound sensitivity with MSL subtype correlation, test cell set (188 cell lines)
# [15] = correlation of PRISM compound sensitivity with DTIO (DetermaIO), test cell set (188 cell lines)
# [16] = correlation of PRISM compound sensitivity with DTIO (DetermaIO), training cell set (371 cell lines)
# [17] = subtype (IM, MSL or M) with which compound sensitivity is negatively correlated, training cell set (371 cell lines), 101 gene signature
compound,measurement,setting,value
CCOC(=O)c1ncc2[nH]c3ccc(OCc4ccccc4)cc3c2c1COC.Cl [ZK-93423],DTIO Corr test,[1]; [5],0.1767
same,DTIO Corr train,[1]; [6],0.1098
same,DTIO Corr test,[1]; [7],0.1767
same,DTIO Corr train,[1]; [8],0.1098
same,IM Corr test,[2]; [9],0.2068
same,M Corr test,[2]; [10],−0.1479
same,MSL Corr test,[2]; [11],−0.01274
same,compound gene test corr,[3],−0.2447
same,compound gene train corr,[3],−0.1712
Cc1cc(CN2CCN(c3c(Br)cnc4nc(-c5ccc(N6CCN(C)CC6)cc5)[nH]c34)CC2)no1 [CCT137690],IM Corr test,[2]; [12],−0.03424
same,M Corr test,[2]; [13],−0.09289
same,MSL Corr test,[2]; [14],−0.02426
same,compound gene train corr,[3],−0.1607
Cn1c(=O)n(-c2ccc(C(C)(C)C#N)cc2)c2c3cc(-c4cnc5ccccc5c4)ccc3ncc21 [NVP-BEX235],Tumor subtype whose representative cell lines respond to the treatment,[4],M and MSL
COc1cc2c(NC3CCN(C(C)C)CC3)nc(N3CCC(F)(F)CC3)nc2cc1OCCCN1CCCC1 [UNC0642],DTIO Corr test,[1]; [15],−0.1219
same,DTIO Corr train,[1]; [16],−0.0704
same,DTIO Corr test,[1]; [7],−0.1219
same,DTIO Corr train,[1]; [8],−0.0704
same,IM Corr test,[2]; [12],−0.2049
same,M Corr test,[2]; [13],0.1456
same,MSL Corr test,[2]; [14],0.1789
same,compound gene test corr,[3],−0.295
same,compound gene train corr,[3],−0.1787
CC1(S(=O)(=O)[O-])CC(=O)c2ccccc2C1=O.[Na+] (centres unmarked) [menadione-bisulfite],DTIO Corr test,[1]; [5],0.1362
same,DTIO Corr train,[1]; [6],0.003549
same,DTIO Corr test,[1]; test set,0.1362
same,DTIO Corr train,[1]; training set,0.003549
same,IM Corr test,[2]; [12],0.1925
same,M Corr test,[2]; [13],−0.2026
same,MSL Corr test,[2]; [14],−0.1086
same,compound gene test corr,"[3]; gene CHL1, test cell lines",−0.2459
same,compound gene train corr,"[3]; gene CHL1, training cell lines",−0.1641
same,compound gene test corr,"[3]; gene COL19A1, test cell lines",−0.2615
same,compound gene train corr,"[3]; gene COL19A1, training cell lines",−0.2071
same,compound gene test corr,"[3]; gene DSTYK, test cell lines",−0.2853
same,compound gene train corr,"[3]; gene DSTYK, training cell lines",−0.1942
same,compound gene test corr,"[3]; gene FCGR2A, test cell lines",−0.2554
same,compound gene train corr,"[3]; gene FCGR2A, training cell lines",−0.1722
same,compound gene test corr,"[3]; gene FCRLA, test cell lines",−0.2647
same,compound gene train corr,"[3]; gene FCRLA, training cell lines",−0.2401
same,compound gene test corr,"[3]; gene GHR, test cell lines",−0.2974
same,compound gene train corr,"[3]; gene GHR, training cell lines",−0.1701
same,compound gene test corr,"[3]; gene LUM, test cell lines",−0.3259
same,compound gene train corr,"[3]; gene LUM, training cell lines",−0.1958
same,compound gene test corr,"[3]; gene LZTS1, test cell lines",−0.3133
same,compound gene train corr,"[3]; gene LZTS1, training cell lines",−0.1907
same,compound gene test corr,"[3]; gene NCKAP5L, test cell lines",−0.3161
same,compound gene train corr,"[3]; gene NCKAP5L, training cell lines",−0.1648
same,compound gene test corr,"[3]; gene P2RX7, test cell lines",−0.2585
same,compound gene train corr,"[3]; gene P2RX7, training cell lines",−0.2054
same,compound gene test corr,"[3]; gene PLEKHO1, test cell lines",−0.2511
same,compound gene train corr,"[3]; gene PLEKHO1, training cell lines",−0.1601
same,compound gene test corr,"[3]; gene PLEKHO2, test cell lines",−0.3003
same,compound gene train corr,"[3]; gene PLEKHO2, training cell lines",−0.2127
same,compound gene test corr,"[3]; gene PLP1, test cell lines",−0.2422
same,compound gene train corr,"[3]; gene PLP1, training cell lines",−0.2332
same,compound gene test corr,"[3]; gene PLPP7, test cell lines",−0.2843
same,compound gene train corr,"[3]; gene PLPP7, training cell lines",−0.1831
same,compound gene test corr,"[3]; gene QKI, test cell lines",−0.2736
same,compound gene train corr,"[3]; gene QKI, training cell lines",−0.2164
same,compound gene test corr,"[3]; gene SYNM, test cell lines",−0.2591
same,compound gene train corr,"[3]; gene SYNM, training cell lines",−0.1742
same,compound gene test corr,"[3]; gene TAMALIN, test cell lines",−0.254
same,compound gene train corr,"[3]; gene TAMALIN, training cell lines",−0.1641
same,compound gene test corr,"[3]; gene WWTR1, test cell lines",−0.2508
same,compound gene train corr,"[3]; gene WWTR1, training cell lines",−0.1794
same,compound gene test corr,"[3]; gene ZCCHC24, test cell lines",−0.3161
same,compound gene train corr,"[3]; gene ZCCHC24, training cell lines",−0.1708
N.N.[Cl][Pt][Cl] [Cisplatin],Tumor subtype whose representative cell lines respond to the treatment,[4],BL1 and BL2
CC(O)(CS(=O)(=O)c1ccc(F)cc1)C(=O)Nc1ccc(C#N)c(C(F)(F)F)c1 (centres unmarked) [Bicalutimide],Tumor subtype whose representative cell lines respond to the treatment,[4],LAR
Cc1occc(=O)c1[O-].Cc1occc(=O)c1[O-].[O]=[V+2] [bis(maltolato)oxovanadium(IV)],compound gene train corr,[3],−0.1081
CC1(C)[C@@H](O[C@H]2O[C@H](C(=O)O)[C@@H](O)[C@H](O)[C@H]2O[C@@H]2O[C@H](C(=O)O)[C@@H](O)[C@H](O)[C@H]2O)CC[C@]2(C)[C@H]3C(=O)C=C4[C@@H]5C[C@@](C)(C(=O)O)CC[C@]5(C)CC[C@@]4(C)[C@]3(C)CC[C@@H]12 [ammonium-glycyrrhizinate],DTIO Corr test,[1]; [5],−0.07896
same,DTIO Corr train,[1]; [6],−0.06692
same,IM Corr test,[2]; [12],−0.02605
same,M Corr test,[2]; [13],0.0501
same,MSL Corr test,[2]; [14],0.0971
COc1cc(Nc2ncc(F)c(Nc3ccc4c(n3)NC(=O)C(C)(C)O4)n2)cc(OC)c1OC [K20285085],DTIO Corr test,"[1]; association of compound sensitivity with DetermaIO classes, test data set",−0.04153
same,DTIO Corr train,"[1]; association of compound sensitivity with DetermaIO classes, training data set",−0.1076
same,TNBCType test,"[2]; classification of association of compound sensitivity with IM, MSL and M cell line classes, test data set",MSL
same,TNBCType train,"[2]; classification of association of compound sensitivity with IM, MSL and M cell line classes, training data set",MSL
CN1C(=O)N(c2cc(Cl)cc(Cl)c2)C(=O)[C@]12CN(Cc1cc(C(=O)O)cs1)C[C@H]2c1ccc(C#N)cc1 [BMS-587101],DTIO Corr test,[1]; [5],−0.08591
same,DTIO Corr train,[1]; [6],0.01986
same,IM Corr test,[2]; [12],−0.05699
same,M Corr test,[2]; [13],0.1367
same,MSL Corr test,[2]; [14],−0.03676
same,TNBCType train,[2]; [17],MSL
CN(C)C(=O)CCSC(SCCC(=O)O)c1cccc(/C=C/c2ccc3ccc(Cl)cc3n2)c1 (centres unmarked) [MK-571],DTIO Corr test,[1]; [5],−0.00581
same,DTIO Corr train,[1]; [6],0.02432
same,IM Corr test,[2]; [12],−0.02535
same,M Corr test,[2]; [13],−0.02967
same,MSL Corr test,[2]; [14],−0.00401
same,TNBCType train,[2]; [17],MSL
Cc1nc(Nc2ncc(C(=O)Nc3c(C)cccc3Cl)s2)cc(N2CCN(CCO)CC2)n1 [Dasantinib],Tumor subtype whose representative cell lines respond to the treatment,[4],M and MSL
CCn1c(=O)[nH]c2cc(Cl)c(Cl)cc21 [DCEBIO],DTIO Corr test,[1]; [15],0.121
same,DTIO Corr train,[1]; [16],0.1577
same,IM Corr test,[2]; [12],0.1207
same,M Corr test,[2]; [13],−0.1198
same,MSL Corr test,[2]; [14],−0.1352
O=C1C(=O)N(Cc2ccc(Cl)c(Cl)c2)c2ccccc21 [apoptosis-activator-II],DTIO Corr test,[1]; [5],0.07557
same,DTIO Corr train,[1]; [6],0.02708
same,IM Corr test,[2]; [12],0.1037
same,M Corr test,[2]; [13],−0.1455
same,MSL Corr test,[2]; [14],−0.1886
same,TNBCType train,[2]; [17],MSL
C[C@]12N[C@H](Cc3ccccc31)c1ccccc12 [dizocilpine-(−)],DTIO Corr test,[1]; [5],−0.06945
same,DTIO Corr train,[1]; [6],0.02729
same,IM Corr test,[2]; [9],−0.0703
same,M Corr test,[2]; [10],−0.00928
same,MSL Corr test,[2]; [11],−0.09183
same,TNBCType train,"[2]; subtype (IM, MSL or M) with which PRISM compound sensitivity is negatively correlated, training cell set, 101 gene signature",MSL
Cc1c(Cl)cccc1Nc1ncccc1C(=O)O.NCCCC[C@H](N)C(=O)O [clonixin-lysinate],DTIO Corr test,[1],−0.01494
same,DTIO Corr train,[1],−0.00484
same,IM Corr test,[2],−0.06378
same,M Corr test,[2],0.004709
same,MSL Corr test,[2],−0.03679
same,TNBCType train,[2],MSL
